In patent publication US20080145440A1, “Microparticle preparation and medical composition” (priority 2006, published 2008):

Assays:
[1] = tested on: mouse-derived colon cancer cells (colon-26); assay: In vitro cellular toxicity experiment (CCK-8); assay type: cell-based; details: colon-26, 10 μg/ml, forty eight hour treatment
Method: Using mouse-derived colon cancer cells (colon-26), a toxicity of the microparticle to cancer cells was experimented. Specifically, the experiment was conducted according to the following method:
The colon-26 cells were disseminated on a 96 well-plate at 1′104 concentration and cultured for twenty four hours. […] Cellular toxicity was examined by measuring absorbency under 450 nm with a CCK-8 kit (Dojindo, Kumamoto, Japan), the CCK-8 kit measuring formazan substitution of tetrazolium based on an intercellular enzyme.

[2] = tested on: Mouse-derived colon cancer (colon-26 adenocarcinoma) cells; assay: In vivo experiment of anticancer treatment; set-up: species or system BALB/c male mouse; details: cancer-bearing mice
Method: As an experimental animal, a six-week-old BALB/c male mouse (weight 25 g, Shimizu Laboratory Supplies Co., Ltd.) was selected. […] In the experiment, the same agent treatment was performed as in the toxicity experiment. Specifically, the experiment was conducted in the following methods:
Weight changes and survival rate were observed from the day of the administration.

N.N.[Cl][Pt][Cl] [free CDDP, cis-dichlorodiammineplatinum (II)]
cytostatic effect [1]: approximately 50% | day of minimum weight after the administration ([2]; 20 mg/kg of CDDP intraperitoneal): fifth day | anticancer effect, concentration difference 5 mg/kg vs 10 mg/kg ([2]; intraperitoneal): no significant difference in the anticancer effect | start of death from cancer after the administration ([2]; intraperitoneal): started to die of cancer after a fortieth day
